Patent publication US20250230193A1, “CYCLIC COMPOUND HAVING SELECTIVE KRAS INHIBITORY EFFECT ON HRAS AND NRAS” (CHUGAI SEIYAKU KABUSHIKI KAISHA, priority 2022, published 2025)

Columns and labels:
[1] = target: GDP-bound NRAS wild-type protein (Homo sapiens, UniProt P01111); assay: Binding to NRAS by surface plasmon resonance (SPR), Single Cycle Kinetics; conditions: KD ratio, GDP-bound NRAS wild-type vs GDP-bound KRAS wild-type, SPR
[2] = target: GDP-bound HRAS wild-type protein (Homo sapiens, UniProt P01112); assay: Binding to HRAS by surface plasmon resonance (SPR), Single Cycle Kinetics; conditions: KD ratio, GDP-bound HRAS wild-type vs GDP-bound KRAS wild-type, SPR
GDP-bound HRAS wild-type protein, sequence (P01112 whole entry): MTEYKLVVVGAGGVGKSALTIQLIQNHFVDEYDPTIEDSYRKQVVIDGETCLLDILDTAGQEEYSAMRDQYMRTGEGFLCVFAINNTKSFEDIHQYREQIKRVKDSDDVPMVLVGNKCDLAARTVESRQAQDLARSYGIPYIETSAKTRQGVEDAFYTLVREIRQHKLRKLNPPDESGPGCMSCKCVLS

GDP-bound NRAS wild-type protein, sequence (P01111 whole entry): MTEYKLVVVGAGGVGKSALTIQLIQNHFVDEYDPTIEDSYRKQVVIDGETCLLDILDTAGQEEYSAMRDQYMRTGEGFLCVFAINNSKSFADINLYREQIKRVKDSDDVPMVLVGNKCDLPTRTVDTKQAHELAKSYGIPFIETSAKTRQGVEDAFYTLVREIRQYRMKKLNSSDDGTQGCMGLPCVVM

Compound	NRAS/KRAS (ratio of KD value for NRAS to KD value for KRAS) [1]	HRAS/KRAS (ratio of KD value for HRAS to KD value for KRAS) [2]
CCO[C@@H]1C[C@H]2C(=O)NC3(CC(C)(C)C3)C(=O)N(C)[C@@H](C(CC)CC)C(=O)N3CCC[C@@H]3CC(=O)N(C)[C@@H](CC3CC3)C(=O)N[C@@H]([C@@H](C)CC)C(=O)N(C)CC(=O)N(C)[C@H]3C/C=C\CCN(C3=O)[C@@H](Cc3ccc(C(F)(F)F)cc3)C(=O)N(C)CC(=O)N[C@@H](CCc3cc(F)c(C(F)(F)F)c(F)c3)C(=O)N2C1 [PP1610]	A (a compound having 10 or more and less than 20 is denoted as A)	A (a compound having 10 or more and less than 20 is denoted as A)
CCO[C@@H]1C[C@H]2C(=O)NC3(CC(C)(C)C3)C(=O)N(C)[C@@H](C3CCCC3)C(=O)N3CCC[C@@H]3CC(=O)N(C)[C@@H](CC3CC3)C(=O)N[C@@H]([C@@H](C)CC)C(=O)N(C)CC(=O)N(C)[C@H]3C/C=C\CCN(C3=O)[C@@H](Cc3ccc(C(F)(F)F)cc3)C(=O)N(C)CC(=O)N[C@@H](CCc3cc(F)c(C(F)(F)F)c(F)c3)C(=O)N2C1 [PP1611]	B (a compound having 3 or more and less than 10 is denoted as B)	B (a compound having 3 or more and less than 10 is denoted as B)
CCO[C@@H]1C[C@H]2C(=O)NC3(CCC3)C(=O)N(C)[C@@H](C(CC)CC)C(=O)N3CCC[C@@H]3CC(=O)N(C)[C@@H](CC3CC3)C(=O)N[C@@H]([C@@H](C)CC)C(=O)N(C)CC(=O)N(C)[C@H]3C/C=C\CCN(C3=O)[C@@H](Cc3ccc(C(F)(F)F)cc3)C(=O)N(C)CC(=O)N[C@@H](CCc3cc(F)c(C(F)(F)F)c(F)c3)C(=O)N2C1 [PP1612]	B (a compound having 3 or more and less than 10 is denoted as B)	B (a compound having 3 or more and less than 10 is denoted as B)
CCO[C@@H]1C[C@H]2C(=O)NC3(CCC3)C(=O)N(C)[C@@H](C3CCCC3)C(=O)N3CCC[C@@H]3CC(=O)N(C)[C@@H](CC3CC3)C(=O)N[C@@H]([C@@H](C)CC)C(=O)N(C)CC(=O)N(C)[C@H]3C/C=C\CCN(C3=O)[C@@H](Cc3ccc(C(F)(F)F)cc3)C(=O)N(C)CC(=O)N[C@@H](CCc3cc(F)c(C(F)(F)F)c(F)c3)C(=O)N2C1 [PP1613]	B (a compound having 3 or more and less than 10 is denoted as B)	B (a compound having 3 or more and less than 10 is denoted as B)
CCO[C@@H]1C[C@H]2C(=O)NC3(CC(F)(F)C3)C(=O)N(C)[C@@H](C(CC)CC)C(=O)N3CCC[C@@H]3CC(=O)N(C)[C@@H](CC3CC3)C(=O)N[C@@H]([C@@H](C)CC)C(=O)N(C)CC(=O)N(C)[C@H]3C/C=C\CCN(C3=O)[C@@H](Cc3ccc(C(F)(F)F)cc3)C(=O)N(C)CC(=O)N[C@@H](CCc3cc(F)c(C(F)(F)F)c(F)c3)C(=O)N2C1 [PP1614]	A (a compound having 10 or more and less than 20 is denoted as A)	A (a compound having 10 or more and less than 20 is denoted as A)
CCO[C@@H]1C[C@H]2C(=O)NC3(CC(F)(F)C3)C(=O)N(C)[C@@H](C3CCCC3)C(=O)N3CCC[C@@H]3CC(=O)N(C)[C@@H](CC3CC3)C(=O)N[C@@H]([C@@H](C)CC)C(=O)N(C)CC(=O)N(C)[C@H]3C/C=C\CCN(C3=O)[C@@H](Cc3ccc(C(F)(F)F)cc3)C(=O)N(C)CC(=O)N[C@@H](CCc3cc(F)c(C(F)(F)F)c(F)c3)C(=O)N2C1 [PP1615]	B (a compound having 3 or more and less than 10 is denoted as B)	B (a compound having 3 or more and less than 10 is denoted as B)
CCO[C@@H]1C[C@H]2C(=O)NC3(CCC3)C(=O)N(C)[C@@H](C3CCCC3)C(=O)N3CCC[C@@H]3CC(=O)N(C)[C@@H](CC3CC3)C(=O)N[C@@H]([C@@H](C)CC)C(=O)N(C)CC(=O)N(C)[C@H]3C/C=C\CCN(C3=O)[C@@H](Cc3ccc(C(F)(F)F)cc3)C(=O)N(C)CC(=O)N[C@@H](CCc3ccc(C(F)(F)F)c(OC)c3)C(=O)N2C1 [PP1616]	B (a compound having 3 or more and less than 10 is denoted as B)	B (a compound having 3 or more and less than 10 is denoted as B)
CCO[C@@H]1C[C@H]2C(=O)NC3(CC(C)(C)C3)C(=O)N(C)[C@@H](C3CCCC3)C(=O)N3CCC[C@@H]3CC(=O)N(C)[C@@H](CC)C(=O)N[C@@H]([C@@H](C)CC)C(=O)N(C)CC(=O)N(C)[C@H]3C/C=C\CCN(C3=O)[C@@H](CC3CCCCC3)C(=O)N(C)CC(=O)N[C@@H](CCc3cc(F)c(C(F)(F)F)c(F)c3)C(=O)N2C1 [PP1620]	B (a compound having 3 or more and less than 10 is denoted as B)	B (a compound having 3 or more and less than 10 is denoted as B)
CCO[C@@H]1C[C@H]2C(=O)NC3(CC(C)(C)C3)C(=O)N(C)[C@@H](C3CCCC3)C(=O)N(C)[C@H](CC)CC(=O)N(C)[C@@H](CC)C(=O)N[C@@H]([C@@H](C)CC)C(=O)N(C)CC(=O)N(C)[C@H]3C/C=C\CCN(C3=O)[C@@H](Cc3ccc(C(F)(F)F)cc3)C(=O)N(C)CC(=O)N[C@@H](CCc3cc(F)c(C(F)(F)F)c(F)c3)C(=O)N2C1 [PP1623]	A (a compound having 10 or more and less than 20 is denoted as A)	A (a compound having 10 or more and less than 20 is denoted as A)
CCO[C@@H]1C[C@H]2C(=O)NC3(CCC3)C(=O)N(C)[C@@H](C(CC)CC)C(=O)N(C)[C@H](CC)CC(=O)N(C)[C@@H](CC)C(=O)N[C@@H]([C@@H](C)CC)C(=O)N(C)CC(=O)N(C)[C@H]3C/C=C\CCN(C3=O)[C@@H](Cc3ccc(C(F)(F)F)cc3)C(=O)N(C)CC(=O)N[C@@H](CCc3cc(F)c(C(F)(F)F)c(F)c3)C(=O)N2C1 [PP1624]	A (a compound having 10 or more and less than 20 is denoted as A)	A (a compound having 10 or more and less than 20 is denoted as A)
CCO[C@@H]1C[C@H]2C(=O)NC3(CCC3)C(=O)N(C)[C@@H](C3CCCC3)C(=O)N(C)[C@H](CC)CC(=O)N(C)[C@@H](CC)C(=O)N[C@@H]([C@@H](C)CC)C(=O)N(C)CC(=O)N(C)[C@H]3C/C=C\CCN(C3=O)[C@@H](Cc3ccc(C(F)(F)F)cc3)C(=O)N(C)CC(=O)N[C@@H](CCc3cc(F)c(C(F)(F)F)c(F)c3)C(=O)N2C1 [PP1625]	B (a compound having 3 or more and less than 10 is denoted as B)	B (a compound having 3 or more and less than 10 is denoted as B)
CCO[C@@H]1C[C@H]2C(=O)NC3(CC(F)(F)C3)C(=O)N(C)[C@@H](C(CC)CC)C(=O)N(C)[C@H](CC)CC(=O)N(C)[C@@H](CC)C(=O)N[C@@H]([C@@H](C)CC)C(=O)N(C)CC(=O)N(C)[C@H]3C/C=C\CCN(C3=O)[C@@H](Cc3ccc(C(F)(F)F)cc3)C(=O)N(C)CC(=O)N[C@@H](CCc3cc(F)c(C(F)(F)F)c(F)c3)C(=O)N2C1 [PP1626]	A (a compound having 10 or more and less than 20 is denoted as A)	A (a compound having 10 or more and less than 20 is denoted as A)
CCO[C@@H]1C[C@H]2C(=O)NC3(CC(F)(F)C3)C(=O)N(C)[C@@H](C3CCCC3)C(=O)N(C)[C@H](CC)CC(=O)N(C)[C@@H](CC)C(=O)N[C@@H]([C@@H](C)CC)C(=O)N(C)CC(=O)N(C)[C@H]3C/C=C\CCN(C3=O)[C@@H](Cc3ccc(C(F)(F)F)cc3)C(=O)N(C)CC(=O)N[C@@H](CCc3cc(F)c(C(F)(F)F)c(F)c3)C(=O)N2C1 [PP1627]	A (a compound having 10 or more and less than 20 is denoted as A)	A (a compound having 10 or more and less than 20 is denoted as A)
CCO[C@@H]1C[C@H]2C(=O)NC3(CC(C)(C)C3)C(=O)N(C)[C@@H](C(CC)CC)C(=O)N(C)[C@H](CC)CC(=O)N(C)[C@@H](CC3CC3)C(=O)N[C@@H]([C@@H](C)CC)C(=O)N(C)CC(=O)N(C)[C@H]3C/C=C\CCN(C3=O)[C@@H](Cc3ccc(C(F)(F)F)cc3)C(=O)N(C)CC(=O)N[C@@H](CCc3cc(F)c(C(F)(F)F)c(F)c3)C(=O)N2C1 [PP1628]	A (a compound having 10 or more and less than 20 is denoted as A)	A (a compound having 10 or more and less than 20 is denoted as A)
CCO[C@@H]1C[C@H]2C(=O)NC3(CC(C)(C)C3)C(=O)N(C)[C@@H](C3CCCC3)C(=O)N(C)[C@H](CC)CC(=O)N(C)[C@@H](CC3CC3)C(=O)N[C@@H]([C@@H](C)CC)C(=O)N(C)CC(=O)N(C)[C@H]3C/C=C\CCN(C3=O)[C@@H](Cc3ccc(C(F)(F)F)cc3)C(=O)N(C)CC(=O)N[C@@H](CCc3cc(F)c(C(F)(F)F)c(F)c3)C(=O)N2C1 [PP1629]	B (a compound having 3 or more and less than 10 is denoted as B)	B (a compound having 3 or more and less than 10 is denoted as B)
CCO[C@@H]1C[C@H]2C(=O)NC3(CCC3)C(=O)N(C)[C@@H](C(CC)CC)C(=O)N(C)[C@H](CC)CC(=O)N(C)[C@@H](CC3CC3)C(=O)N[C@@H]([C@@H](C)CC)C(=O)N(C)CC(=O)N(C)[C@H]3C/C=C\CCN(C3=O)[C@@H](Cc3ccc(C(F)(F)F)cc3)C(=O)N(C)CC(=O)N[C@@H](CCc3cc(F)c(C(F)(F)F)c(F)c3)C(=O)N2C1 [PP1630]	A (a compound having 10 or more and less than 20 is denoted as A)	A (a compound having 10 or more and less than 20 is denoted as A)
CCO[C@@H]1C[C@H]2C(=O)NC3(CC(F)(F)C3)C(=O)N(C)[C@@H](C(CC)CC)C(=O)N(C)[C@H](CC)CC(=O)N(C)[C@@H](CC3CC3)C(=O)N[C@@H]([C@@H](C)CC)C(=O)N(C)CC(=O)N(C)[C@H]3C/C=C\CCN(C3=O)[C@@H](Cc3ccc(C(F)(F)F)cc3)C(=O)N(C)CC(=O)N[C@@H](CCc3cc(F)c(C(F)(F)F)c(F)c3)C(=O)N2C1 [PP1632]	A (a compound having 10 or more and less than 20 is denoted as A)	A (a compound having 10 or more and less than 20 is denoted as A)
